# Measured values taken from PubChem BioAssay AID1963971 (Molecular Pharmacology Branch, DTP, NCI, 2024).
# Test system: 953936-095-R-J2-PDC spheroids with HUVEC/MSC, viability
# Assay: Anticancer human tumor 953936-095-R-J2-PDC patient-derived cervical squamous cell carcinoma cell line growth inhibition [PI3K]
# Conditions: for IC50: curve of first compound; for viability, T/C: stronger effect = lower value
# Method in brief: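 Agents were dosed from a top concentration near clinical Cmax (otherwise 10 microM) in half-log decrements, alone or combined with PI3K inhibitors. The spheroids contain tumor cells plus endothelial (HUVEC) and MSC stroma; viability is measured.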
# [1] = second compound 0.0316 µM, first compound 0.0316 µM
# [2] = second compound 0.0316 µM, first compound 0.1 µM
# [3] = second compound 0.0316 µM, first compound 0.316 µM
# [4] = second compound 0.0316 µM, first compound 1 µM
# [5] = second compound 0.0316 µM, first compound 3.16 µM
# [6] = second compound 0.0316 µM, first compound 10 µM
# [7] = second compound 0.1 µM, first compound 0.0316 µM
# [8] = second compound 0.1 µM, first compound 0.1 µM
# [9] = second compound 0.1 µM, first compound 0.316 µM
# [10] = second compound 0.1 µM, first compound 1 µM
# [11] = second compound 0.1 µM, first compound 3.16 µM
# [12] = second compound 0.1 µM, first compound 10 µM
# [13] = second compound 0.316 µM, first compound 0.0316 µM
# [14] = second compound 0.316 µM, first compound 0.1 µM
# [15] = second compound 0.316 µM, first compound 0.316 µM
# [16] = second compound 0.316 µM, first compound 1 µM
# [17] = second compound 0.316 µM, first compound 3.16 µM
# [18] = second compound 0.316 µM, first compound 10 µM
# [19] = second compound 1 µM, first compound 0.0316 µM
# [20] = second compound 1 µM, first compound 0.1 µM
# [21] = second compound 1 µM, first compound 0.316 µM
# [22] = second compound 1 µM, first compound 1 µM
# [23] = second compound 1 µM, first compound 3.16 µM
# [24] = second compound 1 µM, first compound 10 µM
# [25] = second compound 3.16 µM, first compound 0.0316 µM
# [26] = second compound 3.16 µM, first compound 0.1 µM
# [27] = second compound 3.16 µM, first compound 0.316 µM
# [28] = second compound 3.16 µM, first compound 1 µM
# [29] = second compound 3.16 µM, first compound 3.16 µM
# [30] = second compound 3.16 µM, first compound 10 µM
# [31] = second compound 10 µM, first compound 0.0316 µM
# [32] = second compound 10 µM, first compound 0.1 µM
# [33] = second compound 10 µM, first compound 0.316 µM
# [34] = second compound 10 µM, first compound 1 µM
# [35] = second compound 10 µM, first compound 3.16 µM
# [36] = second compound 10 µM, first compound 10 µM
# 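Also: spheroids exposed to compounds for seven days before read-out.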
compound,measurement,setting,value
CC1(C)CCC(Nc2ncc(C(F)(F)F)c(-c3c[nH]c4c(P(C)(C)=O)c(C#N)ccc34)n2)CN1 (stereo unspecified) + Cc1nc(NC(=O)N2CCCC2C(N)=O)sc1-c1ccnc(C(C)(C)C(F)(F)F)c1,IC50,second compound 0.0316 µM,31.6 nM
same,IC50,second compound 0.1 µM,31.6 nM
same,IC50,second compound 0.316 µM,< 31.6 nM
same,IC50,second compound 1 µM,< 31.6 nM
same,IC50,second compound 3.16 µM,< 31.6 nM
same,IC50,second compound 10 µM,< 31.6 nM
same,"viability, T/C",[1],45.1%
same,"viability, T/C",[2],50%
same,"viability, T/C",[3],46.5%
same,"viability, T/C",[4],52.4%
same,"viability, T/C",[5],55.8%
same,"viability, T/C",[6],8.23%
same,"viability, T/C",[7],45.9%
same,"viability, T/C",[8],39.1%
same,"viability, T/C",[9],42.2%
same,"viability, T/C",[10],42.6%
same,"viability, T/C",[11],54.3%
same,"viability, T/C",[12],5.8%
same,"viability, T/C",[13],38.9%
same,"viability, T/C",[14],37.8%
same,"viability, T/C",[15],40.8%
same,"viability, T/C",[16],38.9%
same,"viability, T/C",[17],38.3%
same,"viability, T/C",[18],3.36%
same,"viability, T/C",[19],30.8%
same,"viability, T/C",[20],27.1%
same,"viability, T/C",[21],26%
same,"viability, T/C",[22],28.1%
same,"viability, T/C",[23],33.4%
same,"viability, T/C",[24],1.62%
same,"viability, T/C",[25],18.2%
same,"viability, T/C",[26],19.4%
same,"viability, T/C",[27],17.2%
same,"viability, T/C",[28],20.1%
same,"viability, T/C",[29],13.8%
same,"viability, T/C",[30],0.46%
same,"viability, T/C",[31],9.15%
same,"viability, T/C",[32],9.91%
same,"viability, T/C",[33],10.7%
same,"viability, T/C",[34],10.3%
same,"viability, T/C",[35],5.73%
same,"viability, T/C",[36],0.31%
Cn1ncc(Cl)c1-c1cc(C(=O)NC(CN)Cc2cccc(F)c2)sc1Cl (stereo unspecified) + Cc1nc(NC(=O)N2CCCC2C(N)=O)sc1-c1ccnc(C(C)(C)C(F)(F)F)c1,IC50,second compound 0.0316 µM,378 nM
same,IC50,second compound 0.1 µM,392 nM
same,IC50,second compound 0.316 µM,165 nM
same,IC50,second compound 1 µM,< 31.6 nM
same,IC50,second compound 3.16 µM,< 31.6 nM
same,IC50,second compound 10 µM,< 31.6 nM
same,"viability, T/C",[1],76.7%
same,"viability, T/C",[2],75.7%
same,"viability, T/C",[3],50.5%
same,"viability, T/C",[4],32.2%
same,"viability, T/C",[5],17.5%
same,"viability, T/C",[6],12.8%
same,"viability, T/C",[7],79.4%
same,"viability, T/C",[8],77.3%
same,"viability, T/C",[9],53.2%
same,"viability, T/C",[10],28.9%
same,"viability, T/C",[11],16.6%
same,"viability, T/C",[12],9.11%
same,"viability, T/C",[13],60.4%
same,"viability, T/C",[14],56.8%
same,"viability, T/C",[15],41.8%
same,"viability, T/C",[16],23.9%
same,"viability, T/C",[17],13.9%
same,"viability, T/C",[18],9.97%
same,"viability, T/C",[19],43.5%
same,"viability, T/C",[20],40%
same,"viability, T/C",[21],32.1%
same,"viability, T/C",[22],19.2%
same,"viability, T/C",[23],11.3%
same,"viability, T/C",[24],6.42%
same,"viability, T/C",[25],25.1%
same,"viability, T/C",[26],24%
same,"viability, T/C",[27],19.2%
same,"viability, T/C",[28],13.6%
same,"viability, T/C",[29],8.24%
same,"viability, T/C",[30],4.61%
same,"viability, T/C",[31],11.2%
same,"viability, T/C",[32],10.5%
same,"viability, T/C",[33],11.5%
same,"viability, T/C",[34],8.02%
same,"viability, T/C",[35],4.99%
same,"viability, T/C",[36],1.1%
Cn1nccc1Nc1nccc(-c2ccn(C(CO)c3ccc(Cl)c(F)c3)c(=O)c2)n1 (stereo unspecified) + Cc1nc(NC(=O)N2CCCC2C(N)=O)sc1-c1ccnc(C(C)(C)C(F)(F)F)c1,IC50,second compound 0.0316 µM,> 10000 nM
same,IC50,second compound 0.1 µM,> 10000 nM
same,IC50,second compound 0.316 µM,> 10000 nM
same,IC50,second compound 1 µM,< 31.6 nM
same,IC50,second compound 3.16 µM,< 31.6 nM
same,IC50,second compound 10 µM,< 31.6 nM
same,"viability, T/C",[1],77.7%
same,"viability, T/C",[2],89.9%
same,"viability, T/C",[3],78.3%
same,"viability, T/C",[4],69.5%
same,"viability, T/C",[5],72.9%
same,"viability, T/C",[6],67.1%
same,"viability, T/C",[7],77.1%
same,"viability, T/C",[8],76.3%
same,"viability, T/C",[9],66.7%
same,"viability, T/C",[10],74.3%
same,"viability, T/C",[11],63%
same,"viability, T/C",[12],68.5%
same,"viability, T/C",[13],63.3%
same,"viability, T/C",[14],55.9%
same,"viability, T/C",[15],52.6%
same,"viability, T/C",[16],56.4%
same,"viability, T/C",[17],57.7%
same,"viability, T/C",[18],52.6%
same,"viability, T/C",[19],45.3%
same,"viability, T/C",[20],39.7%
same,"viability, T/C",[21],38.8%
same,"viability, T/C",[22],37.6%
same,"viability, T/C",[23],40.1%
same,"viability, T/C",[24],31.9%
same,"viability, T/C",[25],23.5%
same,"viability, T/C",[26],23.9%
same,"viability, T/C",[27],21.1%
same,"viability, T/C",[28],17.2%
same,"viability, T/C",[29],15.2%
same,"viability, T/C",[30],10.8%
same,"viability, T/C",[31],11.4%
same,"viability, T/C",[32],9.37%
same,"viability, T/C",[33],6.34%
same,"viability, T/C",[34],4.57%
same,"viability, T/C",[35],3.58%
same,"viability, T/C",[36],1.86%
